# Target: T1, sortase A (SrtA) (Staphylococcus aureus, UniProt Q2FV99)
# T1 sequence (Q2FV99 1-206): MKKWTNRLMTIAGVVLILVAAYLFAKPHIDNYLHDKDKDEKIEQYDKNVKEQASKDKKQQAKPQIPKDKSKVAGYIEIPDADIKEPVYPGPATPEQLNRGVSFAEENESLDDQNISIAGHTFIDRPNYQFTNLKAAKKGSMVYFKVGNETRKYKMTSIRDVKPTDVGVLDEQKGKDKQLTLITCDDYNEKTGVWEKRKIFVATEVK
# Experiment: microscale thermophoresis with labeled purified SrtA
# Format: binding
smiles,measurement,value
"Nc1c(Cl)cccc1C(=O)Nc1ccccc1C(=O)O [compound 5, 2-(2-amino-3-chloro-benzoylamino)-benzoic acid]",Kd,189 µM

# — article PMC9016125 (The Journal of Antibiotics, 2022)
